Data on 7 compounds can be found in publication PMC6199744, “Development of Chemical Proteomics for the Folateome and Analysis of the Kinetoplastid Folateome” (ACS Infectious Diseases, 2018).

Structures are written as SMILES. Where two headings read alike, the source gives them in different places.

Holding throughout (type): binding
Experiment [1] addresses T1, HeLa cell extract proteins (Homo sapiens, UniProt P55072).
T1 construct: endogenous in cells; host or cells: HeLa cell extract

The target of experiment [2] is T2, HeLa cell extract proteins (Homo sapiens, UniProt Q00839).
T2 construct: endogenous in cells; host or cells: HeLa cell extract

Experiment [3] addresses T3, HeLa cell extract proteins (Homo sapiens, UniProt Q16891).
T3 construct: endogenous in cells; host or cells: HeLa cell extract
T3 sequence (Q16891 34-758): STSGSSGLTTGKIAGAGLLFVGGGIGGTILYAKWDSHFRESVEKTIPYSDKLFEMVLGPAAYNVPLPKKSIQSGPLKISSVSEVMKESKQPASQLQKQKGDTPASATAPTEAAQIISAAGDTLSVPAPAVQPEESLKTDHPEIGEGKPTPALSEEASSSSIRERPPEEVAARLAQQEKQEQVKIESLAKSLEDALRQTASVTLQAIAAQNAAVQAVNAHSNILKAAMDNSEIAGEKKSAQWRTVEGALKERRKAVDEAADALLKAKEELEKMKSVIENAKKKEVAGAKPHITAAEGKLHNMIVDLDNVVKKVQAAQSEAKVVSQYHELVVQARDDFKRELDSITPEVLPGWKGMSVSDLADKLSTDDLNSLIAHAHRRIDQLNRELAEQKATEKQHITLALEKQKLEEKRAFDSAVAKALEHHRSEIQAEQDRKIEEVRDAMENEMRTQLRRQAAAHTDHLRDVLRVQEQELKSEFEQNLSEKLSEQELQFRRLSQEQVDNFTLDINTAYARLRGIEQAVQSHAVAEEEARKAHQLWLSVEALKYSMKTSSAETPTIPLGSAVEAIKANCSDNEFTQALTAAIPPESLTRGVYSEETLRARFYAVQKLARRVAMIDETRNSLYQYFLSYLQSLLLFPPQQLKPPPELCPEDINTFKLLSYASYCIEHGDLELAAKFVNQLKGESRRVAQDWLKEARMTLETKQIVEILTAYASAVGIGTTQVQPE

Experiment [4] deals with T4, HeLa cell extract proteins (Homo sapiens, UniProt Q8IXB1).
T4 construct: endogenous in cells; host or cells: HeLa cell extract
T4 sequence (Q8IXB1 33-793): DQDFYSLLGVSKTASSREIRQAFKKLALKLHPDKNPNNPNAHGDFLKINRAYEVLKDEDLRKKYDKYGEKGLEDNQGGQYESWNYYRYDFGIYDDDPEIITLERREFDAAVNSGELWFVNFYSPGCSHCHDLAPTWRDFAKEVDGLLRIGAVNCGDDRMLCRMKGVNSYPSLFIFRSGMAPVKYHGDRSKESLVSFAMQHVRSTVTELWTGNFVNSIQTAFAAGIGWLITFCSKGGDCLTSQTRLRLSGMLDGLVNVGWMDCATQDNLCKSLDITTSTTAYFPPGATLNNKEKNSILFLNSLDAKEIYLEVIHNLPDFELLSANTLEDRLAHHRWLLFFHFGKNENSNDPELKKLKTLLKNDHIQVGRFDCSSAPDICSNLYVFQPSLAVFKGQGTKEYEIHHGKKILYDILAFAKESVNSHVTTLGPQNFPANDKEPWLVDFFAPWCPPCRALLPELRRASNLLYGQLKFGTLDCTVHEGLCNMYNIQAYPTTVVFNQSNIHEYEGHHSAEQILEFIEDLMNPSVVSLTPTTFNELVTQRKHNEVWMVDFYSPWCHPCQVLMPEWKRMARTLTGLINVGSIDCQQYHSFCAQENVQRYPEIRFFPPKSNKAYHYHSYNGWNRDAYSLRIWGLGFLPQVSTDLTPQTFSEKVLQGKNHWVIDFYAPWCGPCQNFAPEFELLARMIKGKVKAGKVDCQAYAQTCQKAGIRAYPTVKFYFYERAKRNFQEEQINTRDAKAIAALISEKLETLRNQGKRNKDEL

In experiment [5] the target is T5, HeLa cell extract proteins (Homo sapiens, UniProt Q8NCG7).
T5 construct: endogenous in cells; host or cells: HeLa cell extract
T5 sequence (Q8NCG7 1-672): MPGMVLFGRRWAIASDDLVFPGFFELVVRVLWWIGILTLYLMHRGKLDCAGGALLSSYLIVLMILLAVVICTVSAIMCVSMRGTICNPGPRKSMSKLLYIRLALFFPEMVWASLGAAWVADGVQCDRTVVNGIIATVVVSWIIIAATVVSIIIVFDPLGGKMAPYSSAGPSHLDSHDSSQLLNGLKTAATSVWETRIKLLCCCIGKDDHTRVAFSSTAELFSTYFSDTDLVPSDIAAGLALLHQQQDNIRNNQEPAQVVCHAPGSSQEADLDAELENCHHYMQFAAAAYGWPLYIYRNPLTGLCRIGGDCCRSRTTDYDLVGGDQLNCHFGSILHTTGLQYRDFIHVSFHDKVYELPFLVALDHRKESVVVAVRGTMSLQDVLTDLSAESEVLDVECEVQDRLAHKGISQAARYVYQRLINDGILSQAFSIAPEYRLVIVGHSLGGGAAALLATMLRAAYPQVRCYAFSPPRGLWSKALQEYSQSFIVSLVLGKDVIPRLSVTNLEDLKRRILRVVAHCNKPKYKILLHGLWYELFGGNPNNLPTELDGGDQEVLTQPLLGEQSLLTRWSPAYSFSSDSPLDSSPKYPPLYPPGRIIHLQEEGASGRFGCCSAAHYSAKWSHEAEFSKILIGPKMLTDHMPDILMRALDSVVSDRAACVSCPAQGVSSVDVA

Experiment [6] addresses T6, HeLa cell extract proteins (Homo sapiens, UniProt Q96BY9).
T6 construct: endogenous in cells; host or cells: HeLa cell extract
T6 sequence (Q96BY9 31-339): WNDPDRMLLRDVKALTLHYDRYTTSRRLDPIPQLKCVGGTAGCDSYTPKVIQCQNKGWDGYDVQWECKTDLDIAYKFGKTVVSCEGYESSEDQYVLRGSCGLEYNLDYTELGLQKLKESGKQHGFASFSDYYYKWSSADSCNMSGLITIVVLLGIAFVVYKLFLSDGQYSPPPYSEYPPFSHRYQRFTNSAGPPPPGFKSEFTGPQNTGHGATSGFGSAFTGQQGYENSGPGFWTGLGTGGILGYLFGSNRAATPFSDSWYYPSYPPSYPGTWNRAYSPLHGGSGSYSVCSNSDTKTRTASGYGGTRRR

Experiment [7] deals with T7, HeLa cell extract proteins (Homo sapiens, UniProt Q9Y230).
T7 construct: endogenous in cells; host or cells: HeLa cell extract

The target in experiment [8] is T8, HeLa cell extract proteins (Homo sapiens, UniProt Q9Y6K9).
T8 construct: endogenous in cells; host or cells: HeLa cell extract

Where [9] appears, read: HeLa, protein TMEM66 (TRANSMEMBRANE PROTEIN 66 PRECURSOR).
Where [10] appears, read: HeLa, protein IKBKG (INHIBITOR OF KAPPAB KINASE GAMMA).

T2 sequence (Q00839 whole entry): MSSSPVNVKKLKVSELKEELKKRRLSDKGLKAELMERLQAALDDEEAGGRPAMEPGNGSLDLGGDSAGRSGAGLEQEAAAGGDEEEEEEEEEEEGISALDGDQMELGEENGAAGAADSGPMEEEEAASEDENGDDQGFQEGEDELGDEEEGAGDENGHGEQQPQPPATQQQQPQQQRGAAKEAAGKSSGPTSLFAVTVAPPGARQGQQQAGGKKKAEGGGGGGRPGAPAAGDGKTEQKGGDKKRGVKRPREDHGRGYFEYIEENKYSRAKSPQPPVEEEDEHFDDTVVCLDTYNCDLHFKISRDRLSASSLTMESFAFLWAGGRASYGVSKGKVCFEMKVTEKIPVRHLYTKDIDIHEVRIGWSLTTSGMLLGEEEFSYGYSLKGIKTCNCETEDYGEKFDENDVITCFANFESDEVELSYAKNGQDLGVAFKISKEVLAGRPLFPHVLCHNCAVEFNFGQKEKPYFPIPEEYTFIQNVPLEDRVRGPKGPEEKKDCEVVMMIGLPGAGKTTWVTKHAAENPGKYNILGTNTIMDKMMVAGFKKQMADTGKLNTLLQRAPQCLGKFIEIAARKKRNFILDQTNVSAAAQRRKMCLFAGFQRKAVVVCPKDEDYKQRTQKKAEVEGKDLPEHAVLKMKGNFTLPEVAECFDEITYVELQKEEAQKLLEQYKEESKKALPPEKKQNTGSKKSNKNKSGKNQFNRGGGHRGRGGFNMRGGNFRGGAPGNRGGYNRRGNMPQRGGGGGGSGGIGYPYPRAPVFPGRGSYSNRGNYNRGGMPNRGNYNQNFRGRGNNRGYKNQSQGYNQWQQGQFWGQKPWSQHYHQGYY
T7 sequence (Q9Y230 whole entry): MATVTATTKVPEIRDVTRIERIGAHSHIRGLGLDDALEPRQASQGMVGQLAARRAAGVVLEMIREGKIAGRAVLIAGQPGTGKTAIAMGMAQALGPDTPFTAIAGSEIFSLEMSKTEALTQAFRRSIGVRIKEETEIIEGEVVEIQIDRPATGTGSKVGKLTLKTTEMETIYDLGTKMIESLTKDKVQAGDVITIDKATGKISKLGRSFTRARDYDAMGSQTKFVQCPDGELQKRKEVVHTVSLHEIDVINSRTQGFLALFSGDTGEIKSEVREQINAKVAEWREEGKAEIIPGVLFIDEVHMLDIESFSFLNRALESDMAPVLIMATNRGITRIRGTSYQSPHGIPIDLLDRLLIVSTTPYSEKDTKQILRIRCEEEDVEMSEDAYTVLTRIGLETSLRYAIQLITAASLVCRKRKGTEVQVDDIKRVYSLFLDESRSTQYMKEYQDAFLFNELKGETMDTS
T8 sequence (Q9Y6K9 whole entry): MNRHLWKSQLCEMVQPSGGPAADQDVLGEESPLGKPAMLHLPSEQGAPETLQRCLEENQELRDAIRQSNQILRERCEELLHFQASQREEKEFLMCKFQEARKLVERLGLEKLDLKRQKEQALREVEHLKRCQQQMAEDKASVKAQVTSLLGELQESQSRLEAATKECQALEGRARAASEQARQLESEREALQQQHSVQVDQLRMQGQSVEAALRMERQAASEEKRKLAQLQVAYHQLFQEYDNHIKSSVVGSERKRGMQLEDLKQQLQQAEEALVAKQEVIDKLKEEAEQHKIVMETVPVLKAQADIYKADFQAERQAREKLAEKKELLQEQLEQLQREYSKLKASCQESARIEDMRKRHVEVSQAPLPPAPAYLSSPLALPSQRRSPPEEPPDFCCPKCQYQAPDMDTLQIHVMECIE
T1 sequence (P55072 whole entry): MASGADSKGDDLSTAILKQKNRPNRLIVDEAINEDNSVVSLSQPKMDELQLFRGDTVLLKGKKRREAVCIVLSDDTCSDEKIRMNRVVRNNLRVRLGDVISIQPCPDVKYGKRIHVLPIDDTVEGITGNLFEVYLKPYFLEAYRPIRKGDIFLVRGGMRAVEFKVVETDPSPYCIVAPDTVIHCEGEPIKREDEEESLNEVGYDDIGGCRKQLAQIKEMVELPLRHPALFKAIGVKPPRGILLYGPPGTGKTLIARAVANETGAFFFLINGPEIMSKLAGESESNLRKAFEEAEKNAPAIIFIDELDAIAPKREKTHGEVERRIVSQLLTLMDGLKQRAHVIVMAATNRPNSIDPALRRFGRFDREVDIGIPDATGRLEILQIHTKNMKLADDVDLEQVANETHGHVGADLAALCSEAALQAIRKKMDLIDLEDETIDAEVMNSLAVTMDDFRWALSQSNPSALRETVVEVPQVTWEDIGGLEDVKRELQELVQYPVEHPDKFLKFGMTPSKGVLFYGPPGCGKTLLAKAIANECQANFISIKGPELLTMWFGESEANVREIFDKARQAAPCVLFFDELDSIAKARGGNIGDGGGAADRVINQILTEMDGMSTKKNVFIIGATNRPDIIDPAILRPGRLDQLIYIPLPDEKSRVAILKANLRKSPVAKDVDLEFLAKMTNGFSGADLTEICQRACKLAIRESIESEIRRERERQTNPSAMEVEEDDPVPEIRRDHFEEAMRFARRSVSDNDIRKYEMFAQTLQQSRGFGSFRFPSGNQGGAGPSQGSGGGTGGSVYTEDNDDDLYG

As for `Nc1nc2cccc(-c3ccccc3)c2n1Cc1ccc(Cl)c(Cl)c1` [compound 3], the “fold changes relative to vehicle control” value in experiment [1] (protein VCP, HeLa) is 0.94; in experiment [2] (HeLa, protein HNRNPU), 0.96; in experiment [3] (HeLa, protein IMMT), 1.05; in experiment [4] (HeLa, protein DNAJC10) it was 1.04; in experiment [5] (captured protein DAGLB, HeLa) it was 0.97; in experiment [6] (protein TMEM66, HeLa), 0.98. Also, the “fold changes relative to vehicle control” value in experiment [7] (protein RUVBL2, HeLa) amounted to 1.02; in experiment [8] (captured protein IKBKG, HeLa), 0.9.
For `NCCOCCOCC(=O)Nc1nc2ncc(CNc3ccc(C(=O)NC(CCC(=O)O)C(=O)O)cc3)nc2c(=O)[nH]1` (centres unmarked) [compound 6], the “fold changes relative to vehicle control” value is given as 1.07 in experiment [1] (HeLa, protein VCP); 1.18 in experiment [2] (protein HNRNPU, HeLa); 1.03 in experiment [3] (HeLa, captured protein IMMT); 0.89 in experiment [4] (HeLa, protein DNAJC10); 1.07 in experiment [5] (HeLa, protein DAGLB); 0.85 in experiment [6] (setting [9]). The “fold changes relative to vehicle control” value is 1.06 in experiment [7] (protein RUVBL2, HeLa) and 0.96 in experiment [8] (setting [10]).
As to `Nc1nc2[nH]cc(CCc3ccc(C(=O)N[C@@H](CCC(=O)O)C(=O)O)cc3)c2c(=O)[nH]1` [PTX, pemetrexed], the “fold changes relative to vehicle control” value in experiment [1] came out at 0.98; in experiment [2], 0.92; in experiment [3] it was 1.01; in experiment [4] it was 0.91; in experiment [5], 0.88; in experiment [6] it was 0.92. Further, the results for the “fold changes relative to vehicle control” value in experiment [7] and in experiment [8] were 0.87 and 1.02, respectively.
For the compound `Nc1nc2c(c(=O)[nH]1)N(C=O)C(CNc1ccc(C(=O)N[C@@H](CCC(=O)O)C(=O)O)cc1)CN2` (some centres unmarked) [LEU, leucovorin], the “fold changes relative to vehicle control” value in experiment [1] (HeLa, protein VCP) was 0.98; in experiment [2] (protein HNRNPU, HeLa) it was 0.8; in experiment [3] (HeLa, captured protein IMMT), 0.97; in experiment [4] (HeLa, protein DNAJC10) it was 0.89; in experiment [5] (HeLa, protein DAGLB), 1.01; in experiment [6] (HeLa, protein TMEM66 (TRA[…] 66 PRECURSOR)) it was 1.06. For the same compound, the “fold changes relative to vehicle control” value is on record as 0.85 in experiment [7] (protein RUVBL2, HeLa) and 0.98 in experiment [8] (setting [10]).
On to `CCCCCCOc1ccc(Cc2cnc(N)nc2N)cc1` [compound 1], for which the “fold changes relative to vehicle control” value in experiment [1] (protein VCP, HeLa) worked out at 0.94; in experiment [2] (HeLa, protein HNRNPU), 0.88; in experiment [3] (HeLa, protein IMMT), 0.96; in experiment [4] (HeLa, protein DNAJC10), 0.89; in experiment [5] (captured protein DAGLB, HeLa), 1.02; in experiment [6] (protein TMEM66, HeLa), 1.16. Further, the “fold changes relative to vehicle control” value in experiment [7] (protein RUVBL2, HeLa) turned out to be 1.03; in experiment [8] (captured protein IKBKG, HeLa), 1.08.
In the case of `NCCCNc1ccc(C(=O)NC(CCC(=O)O)C(=O)O)cc1` (centres unmarked) [compound 7], the “fold changes relative to vehicle control” value is listed as 1.01 in experiment [1] (HeLa, protein VCP); 1.04 in experiment [2] (protein HNRNPU, HeLa); 1.09 in experiment [3] (HeLa, captured protein IMMT); 0.94 in experiment [4] (HeLa, protein DNAJC10); 1.04 in experiment [5] (HeLa, protein DAGLB); 0.87 in experiment [6] (setting [9]). Besides, the “fold changes relative to vehicle control” value turned out to be 0.95 in experiment [7] (protein RUVBL2, HeLa) and 1.15 in experiment [8] (setting [10]).
Take `CCCCCCOc1cccc(Cc2cnc(N)nc2N)c1` [compound 2]: the “fold changes relative to vehicle control” value in experiment [1] (protein VCP, HeLa) is 1.29; in experiment [2] (HeLa, protein HNRNPU), 1.2; in experiment [3] (HeLa, protein IMMT), 1.14; in experiment [4] (HeLa, protein DNAJC10), 0.85; in experiment [5] (captured protein DAGLB, HeLa), 1.07; in experiment [6] (protein TMEM66, HeLa), 1.29. The “fold changes relative to vehicle control” value came out at 1.34 in experiment [7] (protein RUVBL2, HeLa) and 1.1 in experiment [8] (captured protein IKBKG, HeLa).
